Here are results for 14 compounds from ChEMBL document CHEMBL1201862, “PubChem BioAssay data set” (2004).

Structures are written as SMILES.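 96-well plates; 48 h exposure; 5 concentrations. Endpoints by linear interpolation between flanking doses. Not reached: highest tested concentration assigned. At the GI50, growth is halved.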 The source made the active and inactive calls. Cut-off read from the data, not from the text of the source: active = GI50 up to about 1.1 µM and inactive = higher.

Some test systems named below: HL-60; SK-MEL-5; HOP-92; UO-31; LOX IMVI; KM12; COLO 205; SF-295; Malme-3M; SK-OV-3; CAKI-1; OVCAR-8; HT-29; K562; A549; RPMI-8226; SR.
What all share (experiment): inhibition of tumour cell growth, NCI panel, 48 h

As for `CCOc1ccccc1N1C(=O)C(=O)C(c2nc3ccccc3o2)/C(=N\N)C1=O` (stereo unspecified), the GI50 was > 100 µM (inactive) in the assay with HL-60; > 100 µM (inactive) with SK-MEL-5; > 100 µM (inactive) in the assay on HOP-92; 31.2 µM (inactive) in the assay on UO-31; > 100 µM (inactive) in the assay on LOX IMVI; > 100 µM (inactive) with KM12. Besides, the GI50 in the assay on COLO 205, in the assay with SF-295, in the assay with Malme-3M, with SK-OV-3, in the assay on CAKI-1 and in the assay on OVCAR-8 was > 100 µM (inactive) each time. Moreover, the GI50 in the assay with HT-29 was 70.5 µM (inactive); in the assay with K562, > 100 µM (inactive); in the assay with A549, > 100 µM (inactive); in the assay with RPMI-8226, > 100 µM (inactive).
As to `CCOC(=O)C(=O)Nc1ccc(C)c(C)c1`, the GI50 in the assay with HL-60 is > 54.8 µM (inactive); with SK-MEL-5, > 100 µM (inactive); with UO-31, > 100 µM (inactive); in the assay on LOX IMVI, > 56.1 µM (inactive); in the assay on KM12 it was > 53.8 µM (inactive); with COLO 205, 17.1 µM (inactive). Also, the GI50 in the assay on SF-295 was > 100 µM (inactive); in the assay with Malme-3M, > 100 µM (inactive); with SK-OV-3 it was > 100 µM (inactive); in the assay on CAKI-1, > 100 µM (inactive); in the assay with HT-29, > 56.2 µM (inactive); in the assay on SR, < 0.01 µM (active). For the same compound, the GI50 was > 73.1 µM (inactive) in the assay with K562, > 100 µM (inactive) in the assay on A549 and > 100 µM (inactive) in the assay with RPMI-8226.
Consider `COc1cc2cc(OC(C)=O)c3cc4c(cc3c2c(OC)c1OC)OCO4`, for which the GI50 in the assay on HL-60, in the assay on SK-MEL-5, in the assay with UO-31, with LOX IMVI, with KM12 and in the assay with COLO 205 was > 100 µM (inactive) in each case. Also, the GI50 in the assay with SF-295, in the assay on Malme-3M, in the assay with SK-OV-3, in the assay on OVCAR-8, in the assay on HT-29 and in the assay with K562 was > 100 µM (inactive) each time. Further, the GI50 with A549 was > 100 µM (inactive).
For `N=C(N)SCc1cn2ccccc2n1`, the GI50 in the assay with HL-60, in the assay with SK-MEL-5, with UO-31, in the assay with LOX IMVI, in the assay with KM12 and in the assay on COLO 205 was > 100 µM (inactive) each time. For the same compound, the GI50 with SF-295, with Malme-3M, in the assay on CAKI-1, in the assay on OVCAR-8, in the assay on HT-29 and with SR was > 100 µM (inactive) each time. The GI50 in the assay with K562, in the assay with A549 and with RPMI-8226 was > 100 µM (inactive) throughout.
In the case of `COC(=O)C1C(=O)CC2CCCCC21` (stereo unspecified), the GI50 in the assay on HL-60, with SK-MEL-5, in the assay on UO-31, in the assay on KM12, in the assay with COLO 205 and in the assay on Malme-3M was > 100 µM (inactive) in each case. The GI50 in the assay on SK-OV-3, in the assay on CAKI-1, in the assay on SR, in the assay with K562, in the assay with A549 and in the assay on RPMI-8226 was > 100 µM (inactive) throughout.
As to `O=C1/C(=C/c2ccc(Br)cc2)CCC/C1=C\c1ccc(Br)cc1`, the GI50 with HL-60 is 3.18 µM (inactive); in the assay on SK-MEL-5 it was 13.9 µM (inactive); in the assay on UO-31 it was 12.3 µM (inactive); in the assay on KM12, 3.4 µM (inactive); with COLO 205 it was 12.7 µM (inactive); in the assay with Malme-3M, 19.6 µM (inactive). For the same compound, the GI50 in the assay on SK-OV-3 is 56.8 µM (inactive); in the assay on CAKI-1, 29.2 µM (inactive); in the assay with OVCAR-8 it was 3.95 µM (inactive); in the assay on HT-29, 1.88 µM (inactive); with K562 it was 4.31 µM (inactive); with A549 it was 12.4 µM (inactive). In the assay with RPMI-8226, the GI50 was 2.04 µM (inactive).
Turning to `COc1c(C)c(O)c2c(=O)cc(-c3ccccc3)oc2c1C`, the GI50 with SK-MEL-5, in the assay with HOP-92, with UO-31, in the assay with LOX IMVI, with KM12 and with SF-295 was > 100 µM (inactive) in each case. In addition, the GI50 in the assay on Malme-3M, in the assay with SK-OV-3, in the assay on CAKI-1, with OVCAR-8, in the assay on HT-29 and in the assay with K562 was > 100 µM (inactive) each time. Moreover, the GI50 in the assay on A549 is > 100 µM (inactive).
As for `Clc1ccccc1CN1COc2c(ccc3cccnc23)C1`, the GI50 in the assay on HL-60 is 1.83 µM (inactive); with SK-MEL-5 it was 2.77 µM (inactive); with HOP-92, 2.36 µM (inactive); in the assay on UO-31, 1.8 µM (inactive); with LOX IMVI it was 4.4 µM (inactive); with KM12, 3.98 µM (inactive). In addition, the GI50 is 8.38 µM (inactive) in the assay with COLO 205; 3.2 µM (inactive) with SF-295; 4.78 µM (inactive) in the assay with Malme-3M; 8.05 µM (inactive) with SK-OV-3; 2.88 µM (inactive) in the assay with CAKI-1; 4.19 µM (inactive) in the assay on OVCAR-8. For the same compound, the results for the GI50 in the assay with K562, with A549 and in the assay on RPMI-8226 were 2.12 µM (inactive), 3.75 µM (inactive) and 2.73 µM (inactive), respectively.
Regarding `CCCCCCCCCCCCCCCC(=O)OCCOCCOCCOCc1ccccc1`, the GI50 in the assay on SK-MEL-5 is > 100 µM (inactive); in the assay with HOP-92, 21.1 µM (inactive); in the assay on LOX IMVI it was > 100 µM (inactive); in the assay on KM12, > 100 µM (inactive); in the assay on COLO 205, > 100 µM (inactive); in the assay with SF-295, 26 µM (inactive). Besides, the GI50 with Malme-3M is > 100 µM (inactive); with CAKI-1, 80.7 µM (inactive); in the assay with OVCAR-8, > 100 µM (inactive); in the assay with HT-29, > 100 µM (inactive); with A549, > 100 µM (inactive).
As to `COc1ccc2cc1Oc1ccc(cc1)CC1c3cc(c(OC)cc3CCN1C)Oc1c3c(cc4c1C(C2)N(C)CC4)OCO3` (stereo unspecified), the GI50 in the assay on HL-60 is 1.92 µM (inactive); in the assay with SK-MEL-5, 12.3 µM (inactive); in the assay with LOX IMVI it was 1.85 µM (inactive); in the assay with KM12, 12.9 µM (inactive); in the assay on COLO 205 it was 3.89 µM (inactive); in the assay on SF-295, 10.3 µM (inactive). Also, the GI50 in the assay with OVCAR-8 was 8.36 µM (inactive); in the assay with HT-29, 2.46 µM (inactive); in the assay with SR, 7.85 µM (inactive); in the assay with K562 it was 1.85 µM (inactive); in the assay with A549 it was 16 µM (inactive).
Turning to `CC1(C=O)C(=O)CCC2(C)C3CC(=O)OC3CCC12` (stereo unspecified), the GI50 with HL-60, in the assay on SK-MEL-5, in the assay on HOP-92, in the assay on UO-31, in the assay on LOX IMVI and in the assay on KM12 was > 100 µM (inactive) throughout. In addition, the GI50 in the assay on COLO 205, in the assay on SF-295, in the assay on Malme-3M, in the assay with SK-OV-3, in the assay with CAKI-1 and with OVCAR-8 was > 100 µM (inactive) throughout. The GI50 in the assay on HT-29, in the assay on K562, in the assay on A549 and in the assay with RPMI-8226 was > 100 µM (inactive) throughout.
With `CC(=O)O[C@H]1CSC[C@@H](OC(C)=O)C1[N+](=O)[O-]` (stereo partly specified), the GI50 in the assay on HL-60 was 23.2 µM (inactive); in the assay with SK-MEL-5, 47.8 µM (inactive); in the assay on HOP-92, 19 µM (inactive); with KM12 it was 63 µM (inactive); with COLO 205, 21.4 µM (inactive); in the assay on SF-295, > 100 µM (inactive). The GI50 is 23 µM (inactive) in the assay with Malme-3M; > 100 µM (inactive) in the assay with SK-OV-3; 48.6 µM (inactive) with CAKI-1; 45.5 µM (inactive) with OVCAR-8; 48.2 µM (inactive) with HT-29; 26.4 µM (inactive) in the assay with K562. Further, the GI50 was > 100 µM (inactive) with A549 and 22.5 µM (inactive) with RPMI-8226.
`O=C1c2cccc3c(Cl)ccc(c23)C(=O)N1CCCN1CCN(CCCN2C(=O)c3cccc4c(Cl)ccc(c34)C2=O)CC1`: the GI50 in the assay with HL-60, in the assay on SK-MEL-5, in the assay with HOP-92, in the assay with UO-31, in the assay with LOX IMVI and with KM12 was > 100 µM (inactive) throughout. Further, the GI50 with COLO 205 is > 100 µM (inactive); in the assay on SF-295 it was 97.1 µM (inactive); in the assay with Malme-3M it was > 100 µM (inactive); in the assay with SK-OV-3, > 100 µM (inactive); in the assay with CAKI-1, > 100 µM (inactive); in the assay with OVCAR-8, 50.9 µM (inactive). Further, the GI50 in the assay with HT-29 was > 100 µM (inactive); with K562, 86.1 µM (inactive); with A549, > 100 µM (inactive); in the assay on RPMI-8226, > 100 µM (inactive).
`NCCCCCCNCc1cccc2ccccc12`: the GI50 was 54.2 µM (inactive) in the assay with HL-60; 90.8 µM (inactive) in the assay with SK-MEL-5; 53.5 µM (inactive) with UO-31; 41 µM (inactive) in the assay with LOX IMVI; 99.8 µM (inactive) in the assay on KM12; 29.9 µM (inactive) in the assay with COLO 205. Besides, the GI50 in the assay with SF-295 was > 100 µM (inactive); in the assay on Malme-3M, 19.1 µM (inactive); in the assay on SK-OV-3 it was > 100 µM (inactive); in the assay on CAKI-1, > 100 µM (inactive); in the assay with OVCAR-8, > 100 µM (inactive); with HT-29, 38.3 µM (inactive). In addition, the GI50 in the assay with SR was 45.3 µM (inactive); with K562, 19.8 µM (inactive); in the assay on A549, > 100 µM (inactive); in the assay on RPMI-8226 it was > 100 µM (inactive).
